Data taken from patent US20260199294A1, “PEPTIDE DRUG CONJUGATES” (Oncopeptides Innovation AB, priority 2022, published 2026).
“Also recorded” adds a separate entry of the source.

How the values were obtained:
[1] = tested on: BJ Fibroblasts (normal cells); assay: In vitro cytotoxicity (CellTiter-Glo, 72 h) in BJ fibroblasts; format: cell-based, human
Description: All cells were cultivated in RPMI medium 1640 (IX). All media was supplemented with […] penicillin/streptomycin, 10% heat inactivated FBS, 0.1 mM Sodium Pyruvate, 1×MEM NEAA (ThermoFisher) and 1 mM HEPES. The DERL-2 cells had higher FBS (20%) and 40 ng/mL IL-2 was added. hPBMCs were thawed and allowed to acclimatise overnight and then stimulated with 10 µg/mL PHA-M and 40 ng/mL IL-2 for 4 hours before being exposed to test compounds. All cells, except for hPBMCs, were grown to reach log phase before being exposed to the test compounds.
Test compounds were dissolved in 100% DMSO and added to a 384 assay plate. Additional DMSO was added to maintain the same final DMSO concentration (0.2%) in all wells. 25 μL cell suspension with a concentration of 100000 cells/mL was added to each well. The cells were cultured in a CO2 incubator at 37° C. for 72 h. Plates were equilibrated to room temperature for 30 minutes before adding 20 μL CellTiter-Glo® 2.0 (Promega) reagent to all wells. The plate was then allowed to stabilize for 20 minutes before recording the luminescence (Em filter 700 nm) in an Envision plate reader.

[2] = tested on: SU-DHL-4 human lymphoma cell line xenografts; assay: Chicken embryo (in ovo) xenograft model, tumour weight; format: in vivo; conditions: 8.4, 33.5, 167.5 μM
Description: Methods: Inoculation of Fertilized White Leghorn eggs was performed with 3×10^6 SU-DHL-4 tumour cells on day 9 (post-fertilisation). Viable eggs were injected with 100 μL of either Example compound 1 (8.4 μM (0.008 mg/kg), 33.5 μM (0.033 mg/kg), 167.5 μM (0.164 mg/kg)), bendamustine (8.4 μM (0.005 mg/kg), 33.5 μM (0.02 mg/kg), 167.5 μM (0.1 mg/kg)) or vehicle on day 11, 13, 15 and 17. On day 18, tumours were removed and weighed.

[3] = tested on: nuclear DNA (HPRT) prepared from MM.1S cells; assay: Direct DNA damage, PCR amplification with HPRT primers; format: biochemical, human; conditions: 0.25 μM compound, 30 minutes at 37° C.
Description: (§1) Method: DNA was prepared from MM.1S cells by QIAGEN genomic tip 20/G according to protocol described in Furda et al., Methods Mol Biol, 2012. 1 μg of DNA was treated with 0.25 μM compound for 30 minutes at 37° C. DMSO was used as control treatment. 20 ng of the treated DNA was PCR amplified using Phusion Hot Start II High Fidelity PCR Master Mix (Thermo Scientific) and primers directed to either HPRT or primers directed to mitochondrial DNA (mtDNA) was used, generating 10.4 or 8.9 kb fragments, respectively. The PCR reactions were separated on a 1% agarose gel and visualized by ChemiDoc™ MP Imaging System (BioRad). Example compounds 1, 2 and 38 were investigated, as were compounds 18 and 20, which are metabolites of compound 1. They were compared with bendamustine, melphalan and DMSO control. The results for compounds 1, 2, 18 and 20 with the HPRT primers are shown in FIG. 4(A); the results with the mtDNA primers are shown in FIG. 4(B).

[4] = tested on: mitochondrial DNA (mtDNA) prepared from MM.1S cells; assay: Direct DNA damage, PCR amplification with mtDNA primers; format: biochemical, human; conditions: 0.25 μM compound, 30 minutes at 37° C.
Description: as §1

MM.1S cells = assay: DNA fragmentation, APO-BrdU TUNEL assay by FACS; format: cell-based, human
Description: Method: 1×10^6 MM.1S cells (CRL-2974, ATCC) were treated with Example compound 1 or Bendamustine at 0.006, 0.06, 0.6 or 6 μM for 24 h. After incubation, the cells were washed with PBS (10010-015, Gibco), fixed in Flow Cytometry Fixation Buffer (FC004, R&D Systems) for 10 min and stored in 70% ethanol at −20° C. overnight. The deoxythymidine analog (BrdUTP) was present in the experiment and served to label the DNA break sites. Next day, the cells were washed and stained using an APO-BrdU™ TUNEL Assay Kit, according to the manufacturer's protocol (A23210, Invitrogen), followed by the analysis using BD FACSCanto™ II. The percentage ofTUNEL positive cells indicates the percentage of cells with fragmented DNA.

[5] = Stability of Example compound 1 in solution with various excipients (HPLC); format: physicochemical; conditions: 0.4 mg/mL
Description: Ethyl (2S)-2-[[(2S)-2-amino-4-[5-[bis(2-chloroethyl)amino]-1-methyl-benzimidazol-2-yl]butanoyl]amino]-4-methyl-pentanoate (Example compound 1; 19.2 mg, 16.7 mg free base) was dissolved in dimethylacetamide (419 μL) to give a 40 mg/mL stock solution.
Solutions of 0.4 mg/mL of Example compound 1 were prepared by diluting the stock solution in dimethylacetamide (40 mg/mL, 10 μL) with different solutions (990 μL) according to the Table 5 and the stability after 4 h at room temperature was analyzed by HPLC (Analytical HPLC was carried out on an Agilent Series 1100 system using a Kinetex XB C18 (2.6 μm, 3.0×50 mm) column with 0.1% TFA in H2O/CH3CN as mobile phase (acid conditions) (flow 1 mL/min). The excipients were reported in weight ratio excipient:Example compound 1 (free base).

For `CCOC(=O)[C@H](CC(C)C)NC(=O)[C@@H](N)CCc1nc2cc(N(CCCl)CCCl)ccc2n1C` [Example compound 1, Ethyl (2S)-2-[[(2S)-2-amino-4-[5-[bis(2-chloroethyl)amino]-1-methyl-benzimidazol-2-yl]butanoyl]amino]-4-methyl-pentanoate], which IC50 [1] is on record?
Its IC50 is 1.07 µM.

And the “effect on tumour weight / tumour growth (in words)” value [2]?
The value was “dose dependent effect on tumour weight; also recorded: particularly effective at inhibiting tumor growth”.

And the “DNA damage on nuclear DNA (HPRT 10.4 kb PCR band)” value [3]?
Its value is “strong DNA damaging effect”.

What about the “DNA damage on mitochondrial DNA (8.9 kb PCR band)” value [4] of the same molecule?
Its value is “strong DNA damaging effect”.

What about the “cells with DNA breaks” value (MM.1S cells; 0.6 μM for 24 h) of the same molecule?
Its value is over 90%.

What about the “dose response effect on DNA damage (TUNEL positive cells)” value (MM.1S cells; 0.006, 0.06, 0.6 or 6 μM for 24 h) of the same molecule?
The value was “induced DNA damage in a dose-dependent manner”.

What about the “Ex 1 remaining after 4 h at room temp (%)” value (“Ex 1 remaining … (%)” below) ([5]; 2-Hydroxypropyl-β-cyclodextrin (Kleptose), Ultrapure water (MilliQ), weight ratio excipient:Ex 1 5) of the same molecule?
The value was 78%.

And the “Ex 1 remaining … (%)” value ([5]; 2-Hydroxypropyl-β-cyclodextrin (Kleptose), Ultrapure water (MilliQ), weight ratio excipient:Ex 1 10)?
The value was 84%.

What about the “Ex 1 remaining … (%)” value ([5]; 2-Hydroxypropyl-β-cyclodextrin (Kleptose), Ultrapure water (MilliQ), weight ratio excipient:Ex 1 20) of the same molecule?
Its value is 85%.

What about the “Ex 1 remaining … (%)” value ([5]; 2-Hydroxypropyl-γ-cyclodextrin, Ultrapure water (MilliQ), weight ratio excipient:Ex 1 5) of the same molecule?
The value was 82%.

And the “Ex 1 remaining … (%)” value ([5]; 2-Hydroxypropyl-γ-cyclodextrin, Ultrapure water (MilliQ), weight ratio excipient:Ex 1 10)?
The value was 86%.

What about the “Ex 1 remaining … (%)” value ([5]; 2-Hydroxypropyl-γ-cyclodextrin, Ultrapure water (MilliQ), weight ratio excipient:Ex 1 20) of the same molecule?
The value was 79%.

And the “Ex 1 remaining … (%)” value ([5]; Betadex Sulfobutyl Ether Sodium (Dexolve), Ultrapure water (MilliQ), weight ratio excipient:Ex 1 5)?
Its value is 99%.

What about the “Ex 1 remaining … (%)” value ([5]; Betadex Sulfobutyl Ether Sodium (Dexolve), Ultrapure water (MilliQ), weight ratio excipient:Ex 1 10) of the same molecule?
Its value is 101%.

And the “Ex 1 remaining … (%)” value ([5]; Betadex Sulfobutyl Ether Sodium (Dexolve), Ultrapure water (MilliQ), weight ratio excipient:Ex 1 20)?
Its value is 98%.

And the “Ex 1 remaining … (%)” value ([5]; excipient None, solvent 0.9% Saline, ratio 0)?
Its value is 93%.

What about the “Ex 1 remaining … (%)” value ([5]; excipient None, solvent 5% Glucose, ratio 0) of the same molecule?
The value was 80%.

And the “Ex 1 remaining … (%)” value ([5]; excipient None, solvent DPBS, ratio 0)?
Its value is 10%.

What about the “Ex 1 remaining … (%)” value ([5]; excipient None, solvent Dimethylacetamide, ratio 0) of the same molecule?
The value was 103%.

And the “Ex 1 remaining … (%)” value ([5]; excipient None, solvent Ultrapure water (MilliQ), ratio 0)?
Its value is 85%.

And the “Ex 1 remaining … (%)” value ([5]; γ-Cyclodextrin, Ultrapure water (MilliQ), weight ratio excipient:Ex 1 5)?
Its value is 78%.

And the “Ex 1 remaining … (%)” value ([5]; γ-Cyclodextrin, Ultrapure water (MilliQ), weight ratio excipient:Ex 1 10)?
The value was 82%.

And the “Ex 1 remaining … (%)” value ([5]; γ-Cyclodextrin, Ultrapure water (MilliQ), weight ratio excipient:Ex 1 20)?
Its value is 86%.
